Results taken from patent publication US6767900B2, “Phosphonate nucleotide compound” (Mitsubishi Pharma Corporation, priority 2000, dated 2004).

Columns and labels:
Hepatitis B Virus (HBV) = experiment: Inhibitory effect against growth of hepatitis B virus (HBV-DNA synthesis in HB611 cells, Southern blotting); type: cell-based; conditions: read-out: 50% inhibition concentration against HBV-DNA synthesis; HB611 cells (recombinant human hepatoma cells producing HBV); test compound 0.005 to 100 μM from day 8; DNA collected day 17
HB611 cells = experiment: Cytotoxicity to HB611 cells; type: cell-based, human
Description: The inhibitory effect of the compound of the present invention against the growth of an HBV was measured by a known method (K. Ueda, et al., Virology, 169, 213-216 (1989)). 2×10^4 of HB611 cells (recombinant human hepatoma cells producing HBV) were cultured at 37° C. in Dulbecco ME medium containing 10% fetal bovine serum, streptomycin (100 μg/ml), penicillin (100IU/ml) and Genetisin (trade name, antibiotic by LifeTechnologies) (0.2 mg/ml). At the second day and the fifth day of culturing, the medium was replaced by a fresh medium, and then at the eighth day, the eleventh day and the fourteenth day of culturing, the medium was replaced with a medium containing 0.005 to 100 μM (final concentration) of the test compound, and at the seventeenth day of culturing, DNA of the cells were collected. […] Moreover, a concentration of the compounds required to kill 50% of HB611 cells was determined.
Each compound number in the table corresponds to the compound number in Table 1. For reference, the results of the evaluation of the compounds described in EP785208 are also shown.

**Q.** What does the source list for Nc1nc(Sc2ccc(O)cc2)c2ncn(CCOCP(=O)(OCC(F)(F)F)OCC(F)(F)F)c2n1 [Compound No. 3, 2-amino-9-[2-(phosphonomethoxy)ethyl]-6-(4-hydroxyphenylthio)purine bis(2,2,2-trifluoroethyl) ester]?
**A.** IC50 (Hepatitis B Virus (HBV)): 50 nM; Cytotoxic concentration required to kill 50% of HB611 cells (HB611 cells): >1,000 μM
